A word on the logD: it is the decadic logarithm of the distribution of all forms, ionised or not, between an organic phase and buffer at a given pH. Read a low logD as lower lipophilicity.

The values below come from the SangsterLogP compilation.

The series in a line: method code SF-HPLC, from DOI: 10.1016/s0928-0987(01)00163-4, PMID: 11500258. Particulars: pH 7.4.

In the case of `O=C(Cc1ccccc1Nc1c(Cl)cccc1Cl)OCCOCCOCCO`, the logD came out at 3.9.

`COc1ccc2cc(C(C)C(=O)OCCOCCOCCOCCOCCO)ccc2c1` (stereo not drawn) yielded a logD of 3.2.

In turn, `CC(C(=O)OCCOCCOCCOCCOCCO)c1cccc(C(=O)c2ccccc2)c1` (stereo not drawn) showed a logD of 3.9.

In turn, `COc1ccc2cc(C(C)C(=O)OCCOCCOCCO)ccc2c1` (stereo not drawn) gave a logD of 3.7.

In turn, `CC(C(=O)OCCOCCOCCOCCO)c1cccc(C(=O)c2ccccc2)c1` (stereo not drawn) registered a pH-dependent lipophilicity (logD) of 3.6.

On to `CC(C(=O)OCCOCCO)c1cccc(C(=O)c2ccccc2)c1` (stereo not drawn), for which the logD came to 3.6.

For `O=C(Cc1ccccc1Nc1c(Cl)cccc1Cl)OCCOCCO`, the logD was determined as 4.1.

The compound `CC(C(=O)OCCOCCOCCOCCOCCOCCO)c1cccc(C(=O)c2ccccc2)c1` (stereo not drawn) showed a logD of 3.5.

Regarding `COc1ccc2cc(C(C)C(=O)OCCOCCOCCOCCOCCOCCO)ccc2c1` (stereo not drawn), the logD was determined as 2.9.

With `COc1ccc2cc(C(C)C(=O)OCCOCCOCCOCCO)ccc2c1` (stereo not drawn), the logD is 3.5.

`CC(C(=O)OCCOCCOCCO)c1cccc(C(=O)c2ccccc2)c1` (stereo not drawn) yielded a logD of 3.4. The logD values of the last two compounds are within 0.2 log units of each other.

As for `O=C(Cc1ccccc1Nc1c(Cl)cccc1Cl)OCCOCCOCCOCCOCCOCCO`, the pH-dependent lipophilicity (logD) was 2.6.

Turning to `O=C(Cc1ccccc1Nc1c(Cl)cccc1Cl)OCCOCCOCCOCCO`, the logD was 3.5.
